Columns and labels:
IKZF1 = target: T1, IKZF1 (Homo sapiens, UniProt Q13422+Q96SW2); assay: Western blot, degradation of substrate protein in hPBMCs; assay type: cell-based; conditions: 24 hours treatment, compounds at 50 nM and 500 nM (concentration behind the class not stated)
T1 construct: effects of the compounds of the present disclosure on the expression of target proteins in cells; endogenous in cells; host or cells: human PBMCs (Milecell Biotechnologies)

IKZF2 = target: T2, IKZF2 (Homo sapiens, UniProt Q96SW2+Q9UKS7); assay: as above; assay type: cell-based; conditions: 24 hours treatment, compounds at 50 nM and 500 nM (concentration behind the class not stated)
T2 construct: effects of the compounds of the present disclosure on the expression of target proteins in cells; endogenous in cells; host or cells: human PBMCs (Milecell Biotechnologies)

WEE1 = target: T3, WEE1 (Homo sapiens, UniProt P30291+Q96SW2); assay: as above; assay type: cell-based; conditions: 24 hours treatment, compounds at 50 nM and 500 nM (concentration behind the class not stated)
T3 construct: effects of the compounds of the present disclosure on the expression of target proteins in cells; endogenous in cells; host or cells: human PBMCs (Milecell Biotechnologies)

IKZF3 = target: T4, IKZF3 (Homo sapiens, UniProt Q96SW2+Q9UKT9); assay: as above; assay type: cell-based; conditions: 24 hours treatment, compounds at 50 nM and 500 nM (concentration behind the class not stated)
T4 construct: effects of the compounds of the present disclosure on the expression of target proteins in cells; endogenous in cells; host or cells: human PBMCs (Milecell Biotechnologies)

CK1α = target: T5, CK1α (Homo sapiens, UniProt P48729+Q96SW2); assay: as above; assay type: cell-based; conditions: 24 hours treatment, compounds at 50 nM and 500 nM (concentration behind the class not stated)
T5 construct: effects of the compounds of the present disclosure on the expression of target proteins in cells; endogenous in cells; host or cells: human PBMCs (Milecell Biotechnologies)

[1] = target: T6, human Cereblon WT GST-tagged protein (Homo sapiens, UniProt Q96SW2); assay: CRBN-binding affinity, HTRF (CEREBLON BINDING kit); conditions: for inhibition at 0.5 µM: read-out: Inhibition Rate at 0.5 µM (%); for inhibition at 2 µM: read-out: Inhibition Rate at 2 µM (%)
T6 construct: purchased CISBIO 64BDCRBNPEH

GSPT1 = assay: Western blot, degradation of substrate protein in hPBMCs; assay type: cell-based, Human; conditions: 24 hours treatment, compounds at 50 nM and 500 nM (concentration behind the class not stated)

T3 sequence (P30291 whole entry): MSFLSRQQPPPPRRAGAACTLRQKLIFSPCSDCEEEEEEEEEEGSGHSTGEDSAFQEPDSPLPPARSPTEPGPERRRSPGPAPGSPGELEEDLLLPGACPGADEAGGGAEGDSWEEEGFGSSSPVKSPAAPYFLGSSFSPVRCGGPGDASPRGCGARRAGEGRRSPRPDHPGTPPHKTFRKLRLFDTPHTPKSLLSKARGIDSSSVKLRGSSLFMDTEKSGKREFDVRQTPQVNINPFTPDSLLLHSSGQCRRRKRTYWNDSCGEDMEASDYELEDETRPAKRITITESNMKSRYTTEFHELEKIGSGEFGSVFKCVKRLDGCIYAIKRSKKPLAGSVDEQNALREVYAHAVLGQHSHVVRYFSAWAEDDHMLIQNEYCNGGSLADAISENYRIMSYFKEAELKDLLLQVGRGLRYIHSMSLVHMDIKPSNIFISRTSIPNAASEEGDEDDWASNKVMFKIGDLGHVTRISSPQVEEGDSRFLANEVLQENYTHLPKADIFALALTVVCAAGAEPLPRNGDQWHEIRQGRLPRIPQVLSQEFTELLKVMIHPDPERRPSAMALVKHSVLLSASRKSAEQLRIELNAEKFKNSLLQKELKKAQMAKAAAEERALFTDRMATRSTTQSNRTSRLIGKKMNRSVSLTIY
T3 sequence (Q96SW2 whole entry): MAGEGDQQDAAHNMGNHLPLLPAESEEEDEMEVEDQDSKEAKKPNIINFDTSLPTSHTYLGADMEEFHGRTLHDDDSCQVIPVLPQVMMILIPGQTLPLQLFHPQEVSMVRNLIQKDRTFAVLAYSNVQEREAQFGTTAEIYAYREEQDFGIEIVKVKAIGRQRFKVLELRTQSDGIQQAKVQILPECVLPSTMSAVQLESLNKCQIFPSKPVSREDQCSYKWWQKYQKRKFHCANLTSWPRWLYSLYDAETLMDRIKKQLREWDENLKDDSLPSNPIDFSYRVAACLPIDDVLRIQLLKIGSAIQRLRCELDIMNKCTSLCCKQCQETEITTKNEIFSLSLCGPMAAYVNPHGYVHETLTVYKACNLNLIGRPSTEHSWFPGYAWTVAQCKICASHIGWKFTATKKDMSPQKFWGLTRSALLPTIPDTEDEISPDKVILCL
T3 sequence (Q16531 whole entry partner): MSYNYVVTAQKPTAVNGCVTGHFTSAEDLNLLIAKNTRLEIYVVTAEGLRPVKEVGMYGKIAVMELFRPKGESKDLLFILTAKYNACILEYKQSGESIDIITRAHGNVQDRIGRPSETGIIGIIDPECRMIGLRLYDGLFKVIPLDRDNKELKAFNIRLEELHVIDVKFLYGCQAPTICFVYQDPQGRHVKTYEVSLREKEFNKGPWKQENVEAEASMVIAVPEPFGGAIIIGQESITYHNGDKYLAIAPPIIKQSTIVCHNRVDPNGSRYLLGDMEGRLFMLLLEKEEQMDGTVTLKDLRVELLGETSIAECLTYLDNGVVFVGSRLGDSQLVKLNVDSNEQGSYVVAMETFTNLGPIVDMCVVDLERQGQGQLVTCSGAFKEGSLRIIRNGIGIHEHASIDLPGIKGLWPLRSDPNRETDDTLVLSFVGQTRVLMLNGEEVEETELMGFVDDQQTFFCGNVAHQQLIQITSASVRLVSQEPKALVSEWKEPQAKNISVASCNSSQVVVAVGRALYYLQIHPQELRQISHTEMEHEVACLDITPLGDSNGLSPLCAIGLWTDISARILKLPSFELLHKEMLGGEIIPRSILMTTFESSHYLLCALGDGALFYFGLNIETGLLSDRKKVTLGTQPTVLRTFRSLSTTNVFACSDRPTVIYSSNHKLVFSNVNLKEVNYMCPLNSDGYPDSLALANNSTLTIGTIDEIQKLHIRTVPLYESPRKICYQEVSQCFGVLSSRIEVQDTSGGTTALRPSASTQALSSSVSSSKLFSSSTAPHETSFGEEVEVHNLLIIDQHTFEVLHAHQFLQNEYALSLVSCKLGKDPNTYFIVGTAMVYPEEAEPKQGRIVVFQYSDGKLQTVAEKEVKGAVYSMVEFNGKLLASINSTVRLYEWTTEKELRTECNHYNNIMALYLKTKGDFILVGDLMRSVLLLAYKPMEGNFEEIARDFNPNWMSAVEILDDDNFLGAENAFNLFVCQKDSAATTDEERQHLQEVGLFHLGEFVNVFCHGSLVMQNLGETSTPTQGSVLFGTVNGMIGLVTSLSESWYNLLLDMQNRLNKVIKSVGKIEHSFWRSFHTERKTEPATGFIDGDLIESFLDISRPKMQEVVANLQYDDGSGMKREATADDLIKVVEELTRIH
T4 sequence (Q9UKT9 whole entry): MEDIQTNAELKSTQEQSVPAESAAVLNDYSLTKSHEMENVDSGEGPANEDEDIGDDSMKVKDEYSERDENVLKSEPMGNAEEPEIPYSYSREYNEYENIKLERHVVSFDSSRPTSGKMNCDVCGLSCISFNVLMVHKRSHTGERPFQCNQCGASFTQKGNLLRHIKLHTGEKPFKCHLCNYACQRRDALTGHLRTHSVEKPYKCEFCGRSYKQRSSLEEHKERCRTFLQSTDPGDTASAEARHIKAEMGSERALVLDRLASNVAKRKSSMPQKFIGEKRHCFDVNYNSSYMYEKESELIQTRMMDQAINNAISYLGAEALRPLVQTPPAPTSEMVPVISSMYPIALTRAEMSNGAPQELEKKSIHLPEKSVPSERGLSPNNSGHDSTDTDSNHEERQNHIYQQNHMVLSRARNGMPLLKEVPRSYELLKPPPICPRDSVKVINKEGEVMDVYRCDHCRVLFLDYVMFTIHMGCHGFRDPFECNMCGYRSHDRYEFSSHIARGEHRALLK
T4 sequence (Q96SW2 whole entry): as the sequence (Q96SW2 whole entry) above
T4 sequence (Q16531 whole entry partner): as the sequence (Q16531 whole entry partner) above
T1 sequence (Q13422 whole entry): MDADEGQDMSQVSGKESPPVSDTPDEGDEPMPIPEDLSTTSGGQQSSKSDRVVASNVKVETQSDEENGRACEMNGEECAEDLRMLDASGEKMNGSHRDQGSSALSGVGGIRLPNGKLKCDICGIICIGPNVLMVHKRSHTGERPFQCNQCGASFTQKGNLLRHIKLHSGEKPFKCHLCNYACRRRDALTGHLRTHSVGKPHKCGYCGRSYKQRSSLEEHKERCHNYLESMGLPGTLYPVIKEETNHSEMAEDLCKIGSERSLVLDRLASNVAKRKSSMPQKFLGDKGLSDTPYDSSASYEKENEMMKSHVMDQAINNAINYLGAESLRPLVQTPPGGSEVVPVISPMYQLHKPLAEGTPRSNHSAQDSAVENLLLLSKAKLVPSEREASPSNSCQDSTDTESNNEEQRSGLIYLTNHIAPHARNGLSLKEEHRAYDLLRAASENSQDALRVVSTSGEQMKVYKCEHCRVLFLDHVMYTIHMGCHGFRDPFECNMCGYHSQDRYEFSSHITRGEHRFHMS
T1 sequence (Q96SW2 whole entry): as the sequence (Q96SW2 whole entry) above
T1 sequence (Q16531 whole entry partner): as the sequence (Q16531 whole entry partner) above
T6 sequence (Q96SW2 whole entry): as the sequence (Q96SW2 whole entry) above
T5 sequence (P48729 whole entry): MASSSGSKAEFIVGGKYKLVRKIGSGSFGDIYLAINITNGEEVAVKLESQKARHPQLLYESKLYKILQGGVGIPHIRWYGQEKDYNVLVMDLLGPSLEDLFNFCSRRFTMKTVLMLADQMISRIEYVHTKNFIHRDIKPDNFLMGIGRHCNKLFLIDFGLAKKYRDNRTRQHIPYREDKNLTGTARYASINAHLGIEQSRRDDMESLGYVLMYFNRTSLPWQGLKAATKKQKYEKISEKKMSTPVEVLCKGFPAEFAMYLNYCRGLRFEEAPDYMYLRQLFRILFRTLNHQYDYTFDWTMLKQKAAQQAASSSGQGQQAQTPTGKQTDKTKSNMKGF
T5 sequence (Q96SW2 whole entry): as the sequence (Q96SW2 whole entry) above
T5 sequence (Q16531 whole entry partner): as the sequence (Q16531 whole entry partner) above
T2 sequence (Q9UKS7 whole entry): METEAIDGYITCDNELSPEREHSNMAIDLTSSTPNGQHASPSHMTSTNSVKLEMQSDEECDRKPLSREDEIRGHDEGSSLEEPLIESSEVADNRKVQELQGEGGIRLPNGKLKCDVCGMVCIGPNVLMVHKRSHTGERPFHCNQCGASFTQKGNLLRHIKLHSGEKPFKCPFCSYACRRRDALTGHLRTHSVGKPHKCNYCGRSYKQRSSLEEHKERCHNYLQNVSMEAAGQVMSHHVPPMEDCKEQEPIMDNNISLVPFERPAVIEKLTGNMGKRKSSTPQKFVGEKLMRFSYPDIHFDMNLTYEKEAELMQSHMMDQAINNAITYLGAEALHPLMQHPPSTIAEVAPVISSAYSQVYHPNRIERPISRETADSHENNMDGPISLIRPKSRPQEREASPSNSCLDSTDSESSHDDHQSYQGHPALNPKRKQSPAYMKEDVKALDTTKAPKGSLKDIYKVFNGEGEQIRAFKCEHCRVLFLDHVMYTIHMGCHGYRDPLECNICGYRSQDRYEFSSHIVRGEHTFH
T2 sequence (Q96SW2 whole entry): as the sequence (Q96SW2 whole entry) above
T2 sequence (Q16531 whole entry partner): as the sequence (Q16531 whole entry partner) above

Structure (SMILES)	inhibition at 0.5 µM [1] [%]	inhibition at 2 µM [1] [%]	IKZF 1 substrate protein remaining % (IKZF1)	IKZF2 substrate protein remaining % (IKZF2)	Wee1 substrate protein remaining % (WEE1)	IKZF3 substrate protein remaining % (IKZF3)	CK1α substrate protein remaining % (CK1α)	GSPT1 substrate protein remaining % (GSPT1)
O=C1CCC(N2Cc3c(CN4CC=C(c5ncnc6scc(-c7ccccc7)c56)CC4)cccc3C2=S)C(=O)N1 (stereo not shown) [GT-08957, 3-(4-((4-(5-phenylthieno[2,3-d]pyrimidin-4-yl)-3,6-dihydropyridin-1(2H)-yl)methyl)-1-thioxoisoindolin-2-yl)piperidine-2,6-dione]	60 to 80	80 to 100	B (80%< substrate protein remaining %≤ 100%)	B (80%< substrate protein remaining %≤ 100%)	A (0% ≤ substrate protein remaining % ≤ 80%)	B (80%< substrate protein remaining %≤ 100%)	B (80%< substrate protein remaining %≤ 100%)	B (80%< substrate protein remaining %≤ 100%)
O=C1CCC(N2Cc3c(CN4CCN(c5nc(Cl)nc6c5SCC6)CC4)cccc3C2=S)C(=O)N1 (stereo not shown) [GT-08966, 3-(4-((4-(2-chloro-6,7-dihydrothieno[3,2-d]pyrimidin-4-yl)piperazin-1-yl)methyl)-1-thioxoisoindolin-2-yl)piperidine-2,6-dione]	80 to 100	80 to 100	B (80%< substrate protein remaining %≤ 100%)	B (80%< substrate protein remaining %≤ 100%)	B (80%< substrate protein remaining %≤ 100%)	B (80%< substrate protein remaining %≤ 100%)	B (80%< substrate protein remaining %≤ 100%)	A (0% ≤ substrate protein remaining % ≤ 80%)
O=C1CCC(N2Cc3c(CN4CCN(c5nc(N6CCOCC6)nc6c5SCC6)CC4)cccc3C2=S)C(=O)N1 (stereo not shown) [GT-08968, 3-(4-((4-(2-morpholino-6,7-dihydrothieno[3,2-d]pyrimidin-4-yl)piperazin-1-yl)methyl)-1-thioxoisoindolin-2-yl)piperidine-2,6-dione]	60 to 80	80 to 100	B (80%< substrate protein remaining %≤ 100%)	B (80%< substrate protein remaining %≤ 100%)	A (0% ≤ substrate protein remaining % ≤ 80%)	B (80%< substrate protein remaining %≤ 100%)	B (80%< substrate protein remaining %≤ 100%)	B (80%< substrate protein remaining %≤ 100%)
O=C1CCC(N2Cc3c(CN4CCN(c5nc(Cl)nc6ccsc56)CC4)cccc3C2=S)C(=O)N1 (stereo not shown) [GT-08971, 3-(4-((4-(2-chlorothieno[3,2-d]pyrimidin-4-yl)piperazin-1-yl)methyl)-1-thioxoisoindolin-2-yl)piperidine-2,6-dione]	80 to 100	80 to 100	B (80%< substrate protein remaining %≤ 100%)	B (80%< substrate protein remaining %≤ 100%)	A (0% ≤ substrate protein remaining % ≤ 80%)	B (80%< substrate protein remaining %≤ 100%)	B (80%< substrate protein remaining %≤ 100%)	B (80%< substrate protein remaining %≤ 100%)
O=C1CCC(N2Cc3c(CN4CCN(c5nc(N6CCOCC6)nc6ccsc56)CC4)cccc3C2=S)C(=O)N1 (stereo not shown) [GT-09032, 3-(4-((4-(2-morpholinothieno[3,2-d]pyrimidin-4-yl)piperazin-1-yl)methyl)-1-thioxoisoindolin-2-yl)piperidine-2,6-dione]	40 to 53	80 to 100	B (80%< substrate protein remaining %≤ 100%)	B (80%< substrate protein remaining %≤ 100%)	A (0% ≤ substrate protein remaining % ≤ 80%)	B (80%< substrate protein remaining %≤ 100%)	B (80%< substrate protein remaining %≤ 100%)	B (80%< substrate protein remaining %≤ 100%)

Second part, led by results:

inhibition at 0.5 µM [1] [%]	inhibition at 2 µM [1] [%]	Structure (SMILES)	IKZF 1 substrate protein remaining % (IKZF1)	IKZF2 substrate protein remaining % (IKZF2)	Wee1 substrate protein remaining % (WEE1)	IKZF3 substrate protein remaining % (IKZF3)	CK1α substrate protein remaining % (CK1α)	GSPT1 substrate protein remaining % (GSPT1)
40 to 53	60 to 80	Cc1sc2ncnc(C3=CCN(Cc4cccc5c4CN(C4CCC(=O)NC4=O)C5=S)CC3)c2c1C (stereo not shown) [GT-08955, 3-(4-((4-(5,6-dimethylthieno[2,3-d]pyrimidin-4-yl)-3,6-dihydropyridin-1(2H)-yl)methyl)-1-thioxoisoindolin-2-yl)piperidine-2,6-dione]	B (80%< substrate protein remaining %≤ 100%)	B (80%< substrate protein remaining %≤ 100%)	A (0% ≤ substrate protein remaining % ≤ 80%)	B (80%< substrate protein remaining %≤ 100%)	B (80%< substrate protein remaining %≤ 100%)	B (80%< substrate protein remaining %≤ 100%)
60 to 80	80 to 100	Cc1nc(C2=CCN(Cc3cccc4c3CN(C3CCC(=O)NC3=O)C4=S)CC2)c2c(-c3ccccc3)csc2n1 (stereo not shown) [GT-08958, 3-(4-((4-(2-methyl-5-phenylthieno[2,3-d]pyrimidin-4-yl)-3,6-dihydropyridin-1(2H)-yl)methyl)-1-thioxoisoindolin-2-yl)piperidine-2,6-dione]	B (80%< substrate protein remaining %≤ 100%)	B (80%< substrate protein remaining %≤ 100%)	A (0% ≤ substrate protein remaining % ≤ 80%)	B (80%< substrate protein remaining %≤ 100%)	B (80%< substrate protein remaining %≤ 100%)	B (80%< substrate protein remaining %≤ 100%)
60 to 80	80 to 100	Cc1nc(C2=CCN(Cc3cccc4c3CN(C3CCC(=O)NC3=O)C4=S)CC2)c2ccsc2n1 (stereo not shown) [GT-08959, 3-(4-((4-(2-methylthieno[2,3-d]pyrimidin-4-yl)-3,6-dihydropyridin-1(2H)-yl)methyl)-1-thioxoisoindolin-2-yl)piperidine-2,6-dione]	B (80%< substrate protein remaining %≤ 100%)	B (80%< substrate protein remaining %≤ 100%)	A (0% ≤ substrate protein remaining % ≤ 80%)	B (80%< substrate protein remaining %≤ 100%)	B (80%< substrate protein remaining %≤ 100%)	B (80%< substrate protein remaining %≤ 100%)
40 to 53	80 to 100	Cc1nc(C2=CCN(Cc3cccc4c3CN(C3CCC(=O)NC3=O)C4=S)CC2)c2c3c(sc2n1)CCCC3 (stereo not shown) [GT-08961, 3-(4-((4-(2-methyl-5,6,7,8-tetrahydrobenzo[4,5]thieno[2,3-d]pyrimidin-4-yl)-3,6-dihydropyridin-1(2H)-yl)methyl)-1-thioxoisoindolin-2-yl)piperidine-2,6-dione]	B (80%< substrate protein remaining %≤ 100%)	B (80%< substrate protein remaining %≤ 100%)	A (0% ≤ substrate protein remaining % ≤ 80%)	B (80%< substrate protein remaining %≤ 100%)	B (80%< substrate protein remaining %≤ 100%)	B (80%< substrate protein remaining %≤ 100%)
60 to 80	80 to 100	O=C1CCC(N2Cc3c(CN4CC=C(c5ncnc6sc7c(c56)CCC7)CC4)cccc3C2=S)C(=O)N1 (stereo not shown) [GT-08963, 3-(4-((4-(6,7-dihydro-5H-cyclopenta[4,5]thieno[2,3-d]pyrimidin-4-yl)-3,6-dihydropyridin-1(2H)-yl)methyl)-1-thioxoisoindolin-2-yl)piperidine-2,6-dione]	B (80%< substrate protein remaining %≤ 100%)	B (80%< substrate protein remaining %≤ 100%)	A (0% ≤ substrate protein remaining % ≤ 80%)	B (80%< substrate protein remaining %≤ 100%)	B (80%< substrate protein remaining %≤ 100%)	B (80%< substrate protein remaining %≤ 100%)
53 to 60	80 to 100	Cc1nc(C2=CCN(Cc3cccc4c3CN(C3CCC(=O)NC3=O)C4=S)CC2)c2c3c(sc2n1)CCC3 (stereo not shown) [GT-08964, 3-(4-((4-(2-methyl-6,7-dihydro-5H-cyclopenta[4,5]thieno[2,3-d]pyrimidin-4-yl)-3,6-dihydropyridin-1(2H)-yl)methyl)-1-thioxoisoindolin-2-yl)piperidine-2,6-dione]	B (80%< substrate protein remaining %≤ 100%)	B (80%< substrate protein remaining %≤ 100%)	A (0% ≤ substrate protein remaining % ≤ 80%)	B (80%< substrate protein remaining %≤ 100%)	B (80%< substrate protein remaining %≤ 100%)	B (80%< substrate protein remaining %≤ 100%)

Source: patent publication EP4745135A1 (Gluetacs Therapeutics (Shanghai) Co., Ltd., priority 2023, dated 2025)
